In US20130059818A1, “CARBOSILANE DENDRIMERS AND THE USE THEREOF AS ANTIVIRAL AGENTS” (UNIVERSIDAD DE ALCALA DE HENARES (UAH), priority 2010, published 2013):
“Also recorded” adds a separate entry of the source.

Experiments:
[1] = tested on: HEC-1A (human endometrial epithelial cells); assay: MTT assay in HEC-1A; format: cell-based; conditions: up to 10 μM, FIG. 13A
Procedure: (§1) This method was selected to analyze detrimental intracellular effects on mitochondria and metabolic activity. The colorimetric MTT test, based on the selective ability of viable cells to reduce MTT to purple formazan, relies on intact metabolic activity and is frequently used for cytotoxicity screening. […] The concentration of formazan was then determined spectrophotometrically in a plate reader at a wavelength of 570 nm (test) and 690 nm (reference). The spectrophotometer was calibrated to zero absorbance by using Optimem medium without cells. The percentage cell viability relative to control wells (cells with no dendrimer) was calculated by ([A]test/[A]control)T100. […]

[2] = tested on: X4 HIV NL4.3 and R5 HIV Bal; assay: CDi, CDm and macrophages pre-treatment; format: cell-based, HIV-1; conditions: pretreated 1 h, 50 ng virus
Procedure: Once the cells were differentiated, they were washed twice with PBS and 2*10^5 CDi, 2*10^5 CDm and 10^5 macrophages were dispensed in 200 μL of complete medium in bottom p96 wells. The dendrimer were added one hour prior to the infection. After adding the viral particles (50 ng), they were incubated in culture conditions and after 3 hours the supernatant was retired and washed 4 times with PBS. The supernatant was collected after 4 days. The viral concentration was quantified by ELISA.

[3] = tested on: HEC-1A (human endometrial epithelial cells); assay: LDH assay in HEC-1A; format: cell-based
Source text: This technique (CytoTox 96® Non-Radioactive Cytotoxicity Assay) was used to test the damage in the cell membrane surface due to the presence of anionic peripheral groups of dendrimers. The lactate dehydrogenase (LDH) is an enzyme that is released into the cytoplasm due to cell lysis. The LDH assay, therefore, is a measure of membrane integrity, which is based on the oxidation of LDH to pyruvate and reduction of tetrazolium salts to formazan crystals by pyruvate.
1*10^5 cells/well were dispensed in 96-well plate round bottom in a volume of 100 μL of complete medium and the dendrimer was added in a volume of 100 μL, to obtain a final volume of 200 μL in the well. Controls: 1. 200 μL of complete medium without cells (background control), 2. 100 μL of cells+100 μL of complete medium, 3. 100 μL of cells+100 μL of Triton X-100 0.2% 4. 100 μL of cells+100 μL with the dendrimer to the desired concentration. Incubated in culture conditions during the first 24 h. Plate was centrifuged at 1500 rpm 10 minutes and removed 100 μL of supernatant, being careful not to take the cells. 100 μL of reaction mixture prepared at the time on the 100 μL was added of supernatant and incubated at room temperature for 30 minutes in darkness. Finally, measured at 490 nm and 690 nm reference. The cytotoxicity was obtained from the following formula: Cytotoxicity (%)=(4−2)/(3−2)*100 […]

[4] = tested on: HIV-1 NL4.3 (X4 tropic) and HIV-1 BaL (R5 tropic); assay: Action mechanism: virus treated with dendrimer before exposure to PBMC; format: cell-based; conditions: 10 μM, 4 days of culture
Procedure: It was used for this experiment a 96 well plate of flat bottom with Poli-L-lysine (PLL, Sigma® covering the bottom of the well. For this purpose, 50 uL of PLL were incubated at 37° C. for one hour. After washing the wells three times with PBS, 4 ng of HIV were incubated overnight at 4° C., to ensure that the virus particles were adhered to the bottom of the well. Each well was washed three times with PBS to remove HIV not adhered to the plate and then each well was treated with different dendrimer concentrations for 1 h. Afterward, it was necessary to washed the product with PBS and PBMC previously stimulated were added. The supernatant of this cell culture was recovered after 4 days and p24 antigen was quantified by ELISA to assess the amount of HIV produced by the PBMC in different treatments. As positive control of lysis of the viral particles Triton x-100 (1%) was used.
After verifying the effectiveness of the dendrimer to block adherence and internalization of virus particles, we proceeded to try to understand the mechanism of action. To this end, we designed an experiment that consisted of exposing the viral particles to the presence of dendrimer, to then use this combination in stimulated PBMC cultures (prepared for the viral infection). […]

[5] = tested on: TNF-alpha transcriptional activity (pTNF-luc); assay: Transfection of Jurkat cells with pTNF-luc plasmid; format: cell-based; conditions: 5 and 10 micromolar, 16 hours, versus control cells without stimulating
Procedure: Inflammation experiments: the experiments were conducted with transient transfection using plasmid indicators pTNF-luc and pNF-κB-luc containing 3 copies in tandem of site NF-κB of the promoter. The Jurkat cell line was nucleofected with the AMAXA nucleofector following the commercial house protocol “cell line nucleofector kit V” and the specific programme used in the X-005. Transfected cells were stimulated for 16 hours with the different stimuli that appear in the graphs (TNF-alpha, antibody monoclonal anti-TNF-alpha and different concentrations (5 and 10 micromolar) of the anionic sulfonate dendrimer). After different treatments, the transfected cells were collected by centrifugation and lysed with commercial tampon lysis “Dual-luciferase Assay System Kit” (Promega), according to the manufacturer's recommendations. The amount of protein in 5 μl of lysed cell was measured by the method of BSA-BCA (Pierce, Rockford, USA). Once quantified, the values of all the samples were normalized to 20 micrograms to measure the luciferase activity for about 10 seconds in a luminometer 1450 Microbeta Luminiscence Counter (Walax, Trilux). Luciferasa activity of firefly values are expressed as induction with respect to cells control. […]

NF-kB (pNF-kB-luc) = assay: Transfection of Jurkat cells with pNF-kB-luc plasmid; format: cell-based
Procedure: Inflammation experiments: the experiments were conducted with transient transfection using plasmid indicators pTNF-luc and pNF-κB-luc containing 3 copies in tandem of site NF-κB of the promoter. The Jurkat cell line was nucleofected with the AMAXA nucleofector following the commercial house protocol “cell line nucleofector kit V” and the specific programme used in the X-005. Transfected cells were stimulated for 16 hours with the different stimuli that appear in the graphs (TNF-alpha, antibody monoclonal anti-TNF-alpha and different concentrations (5 and 10 micromolar) of the anionic sulfonate dendrimer). […] The amount of protein in 5 μl of lysed cell was measured by the method of BSA-BCA (Pierce, Rockford, USA). Once quantified, the values of all the samples were normalized to 20 micrograms to measure the luciferase activity for about 10 seconds in a luminometer 1450 Microbeta Luminiscence Counter (Walax, Trilux). Luciferasa activity of firefly values are expressed as induction with respect to cells control.
Jurkat cells were transfected with the pNF-kB-luc plasmid, they were cultivated in the presence of sulfonate (10 micromolar) for 16 hours and the luciferasa activity was measured. […] The results presented are expressed as standardized induction index with the values of cell controls without treatment control and it is a representative of three independent experiments.

PBMC [6] = assay: LDH assay in PBMC; format: cell-based, human
Source text: This technique (CytoTox 96® Non-Radioactive Cytotoxicity Assay) was used to test the damage in the cell membrane surface due to the presence of anionic peripheral groups of dendrimers. The lactate dehydrogenase (LDH) is an enzyme that is released into the […] due to cell lysis. The LDH assay, therefore, is a measure of membrane integrity, which is based on the […] and reduction of tetrazolium salts to formazan crystals by […].
1*10^5 cells/well were dispensed in 96-well plate round bottom in a volume of 100 μL of complete medium and the dendrimer was added in a volume of 100 μL, to obtain a final volume of 200 μL in the well. Controls: 1. 200 μL of complete medium without cells (background control), 2. 100 μL of cells+100 μL of complete medium, 3. 100 μL of cells+100 μL of Triton X-100 0.2% 4. 100 μL of cells+100 μL with the dendrimer to the desired concentration. Incubated in culture conditions during the first 24 h. Plate was centrifuged at 1500 rpm 10 minutes and removed 100 μL of supernatant, being careful not to take the cells. 100 μL of reaction mixture prepared at the time on the 100 μL was added of supernatant and incubated at room temperature for 30 minutes in darkness. Finally, measured at 490 nm and 690 nm reference. The cytotoxicity was obtained from the following formula: Cytotoxicity (%)=(4−2)/(3−2)*100

[7] = tested on: HIV (X4 and R5-tropic virus); assay: Inhibition of transcytosis through HEC-1A monolayer (transwell); format: cell-based
Procedure: To obtain a perfect monolayer of polarized epithelial cells, the HEC-1A were grown in complete medium on a permeable polycarbonate support of 0.4 μm pore (Costar, Cambridge, Mass.). Then, 2*10^5 cells by well were cultivated for 7 days, with media changes every 2-3 days. The dendrimer were added one hour prior to the infection. […] The viral concentration was quantified by ELISA.
To reproduce in the best possible way the role that the anionic dendrimer develop on the surface of the endometrium and to study the passage of virions through the mucosal stratified vaginal epithelium, we used transwell devices that recreate the phenomenon of transcytosis (transport of macromolecules from the extracellular space to another through the cytoplasm of a cell via an endocytic vesicle) due to the possibility of forming a perfect monolayer of adherent cells on the inside and collect information from the supernatants of the apical and basolateral side of the monolayer. […]

PBMC [8] = assay: Lymphoproliferative assay (BrdU incorporation); set-up: Mitogenic effect of dendrimer alone (BrdU incorporation): dose or concentration left out as unconfirmed
PBMC [9] = assay: MTT assay in PBMC; format: cell-based, human; conditions: 10 μM
Procedure: as §1

HIV-1 NL4.3 = assay: PBMC pre-treatment / post-treatment infection inhibition; format: cell-based
Procedure: We used 2*10^5 stimulated PBMC cells dispensed in 200 μL of complete medium in round bottom wells of p96 plate. […] After this time, the wells were washed twice with PBS and were incubated in culture conditions. The viral concentration after 3 days was quantified by ELISA of p24.

ck-G1-[Si(CH2)4(N3C2H)CH2N(CH2PO(OMe)2)2]8 [G2CKP32]
Cell viability (MTT toxicity curve) [1]: good cell viability

mannan [reference compound]
Decrease of p24 antigen in immature dendritic cells [2]: significant

ck-G1-[Si(CH2)4(N3C2H)CH2N(CH2CH2COONa)2]8 [G2CKCOO16]
Cell viability (MTT toxicity curve) [1]: good cell viability

dextran
LDH in the supernatant with regard to the control ([3]; 24 hours of treatment): ~10%

G1-[Si(CH2)3N(CH2CH2SO3Na)2]8 [G2SF16]
HIV (p24) in supernatant of PBMC after virus treated with dendrimer [4]: low prevalence of HIV | Promoter activity of the pTNF-luc plasmid [5]: two to three times lower | Activity of the pNF-kB-luc plasmid (NF-kB (pNF-kB-luc); 10 micromolar, 16 hours): decrease in the activity of the pNF-kB-luc plasmid; also recorded: decreases the transcriptional activity of NF-kappa | Induction of NF-kB-luc by TNF-alpha (NF-kB (pNF-kB-luc); sulfonate + TNF-alpha): reversal of the induction of NF-kB-luc | Damage to the cell membrane (LDH) (PBMC [6]): low damage | Concentration from which toxicity was presented (LDH) (PBMC [6]; 24 hours): ≥ 10 µM | Reduction of passage of viral particles through the monolayer ([7]; 5 μM, both X4 and R5 virus, basolateral supernatant at 24 and 48 hours): 40% | Effect on mitogenic effect of PHA, treatment at the same time as PHA (PBMC [8]; PBMC, 4 days): slightly decreases the mitogenic effect | Mitogenic effect of dendrimer alone (BrdU incorporation) (PBMC [8]; PBMC, 4 days): no mitogenic effect | BrdU incorporation in PBMC previously stimulated with PHA (PBMC [8]; PHA for 3 days, then 4 days of treatment, FIG. 4B): decrease in BrdU incorporation; also recorded: inhibits the mitogenic effect of PHA | Mitochondrial activity (MTT) (PBMC [9]): optimal mitochondrial activity | Decrease of p24 antigen in immature dendritic cells [2]: significant | p24 in the supernatant of macrophages [2]: clear decrease of p24 | Inhibition of infection, post-treatment (HIV-1 NL4.3; PBMC infected first, then dendrimer): 60% | Inhibition of infection, pre-treatment (HIV-1 NL4.3; PBMC treated with dendrimer prior to infection by HIV-1 NL4.3): 80%

Cc1ccc(C(=O)Nc2ccc(S(=O)(=O)O)c3cc(S(=O)(=O)O)cc(S(=O)(=O)O)c23)cc1NC(=O)c1cccc(NC(=O)Nc2cccc(C(=O)Nc3cc(C(=O)Nc4ccc(S(=O)(=O)O)c5cc(S(=O)(=O)O)cc(S(=O)(=O)O)c45)ccc3C)c2)c1 [Suramin, reference compound]
Reduction of passage of viral particles through the monolayer ([7]; 70 ng Bal virus, 1 h pretreatment, basolateral supernatant after 48 h, FIG. 20): lacks the inhibitory effect | Inhibitory effect on passage of viral particles through the monolayer ([7]; R5-tropic virus, positive control): no inhibitory effect | LDH release ([3]; after an hour of contact): did not show toxicity | Decrease of p24 antigen in immature dendritic cells [2]: significant
